Consider 28 compounds from patent US10829501B2 (BRISTOL-MYERS SQUIBB COMPANY, priority 2016, dated 2020).

Where a name gives a salt, the structure may show the parent alone.

The target in one test is ROCK2 (Homo sapiens, UniProt O75116). The experiment in a line: ROCK2 kinase inhibition assay (LABCHIP 3000 Reader, FITC peptide substrate).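 Also: rho kinase reaction read by separating phosphorylated from unphosphorylated peptide on chip, with inhibition of kinase activity computed per concentration across a dose-response series.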
ROCK2, sequence (O75116 whole entry, species assumed): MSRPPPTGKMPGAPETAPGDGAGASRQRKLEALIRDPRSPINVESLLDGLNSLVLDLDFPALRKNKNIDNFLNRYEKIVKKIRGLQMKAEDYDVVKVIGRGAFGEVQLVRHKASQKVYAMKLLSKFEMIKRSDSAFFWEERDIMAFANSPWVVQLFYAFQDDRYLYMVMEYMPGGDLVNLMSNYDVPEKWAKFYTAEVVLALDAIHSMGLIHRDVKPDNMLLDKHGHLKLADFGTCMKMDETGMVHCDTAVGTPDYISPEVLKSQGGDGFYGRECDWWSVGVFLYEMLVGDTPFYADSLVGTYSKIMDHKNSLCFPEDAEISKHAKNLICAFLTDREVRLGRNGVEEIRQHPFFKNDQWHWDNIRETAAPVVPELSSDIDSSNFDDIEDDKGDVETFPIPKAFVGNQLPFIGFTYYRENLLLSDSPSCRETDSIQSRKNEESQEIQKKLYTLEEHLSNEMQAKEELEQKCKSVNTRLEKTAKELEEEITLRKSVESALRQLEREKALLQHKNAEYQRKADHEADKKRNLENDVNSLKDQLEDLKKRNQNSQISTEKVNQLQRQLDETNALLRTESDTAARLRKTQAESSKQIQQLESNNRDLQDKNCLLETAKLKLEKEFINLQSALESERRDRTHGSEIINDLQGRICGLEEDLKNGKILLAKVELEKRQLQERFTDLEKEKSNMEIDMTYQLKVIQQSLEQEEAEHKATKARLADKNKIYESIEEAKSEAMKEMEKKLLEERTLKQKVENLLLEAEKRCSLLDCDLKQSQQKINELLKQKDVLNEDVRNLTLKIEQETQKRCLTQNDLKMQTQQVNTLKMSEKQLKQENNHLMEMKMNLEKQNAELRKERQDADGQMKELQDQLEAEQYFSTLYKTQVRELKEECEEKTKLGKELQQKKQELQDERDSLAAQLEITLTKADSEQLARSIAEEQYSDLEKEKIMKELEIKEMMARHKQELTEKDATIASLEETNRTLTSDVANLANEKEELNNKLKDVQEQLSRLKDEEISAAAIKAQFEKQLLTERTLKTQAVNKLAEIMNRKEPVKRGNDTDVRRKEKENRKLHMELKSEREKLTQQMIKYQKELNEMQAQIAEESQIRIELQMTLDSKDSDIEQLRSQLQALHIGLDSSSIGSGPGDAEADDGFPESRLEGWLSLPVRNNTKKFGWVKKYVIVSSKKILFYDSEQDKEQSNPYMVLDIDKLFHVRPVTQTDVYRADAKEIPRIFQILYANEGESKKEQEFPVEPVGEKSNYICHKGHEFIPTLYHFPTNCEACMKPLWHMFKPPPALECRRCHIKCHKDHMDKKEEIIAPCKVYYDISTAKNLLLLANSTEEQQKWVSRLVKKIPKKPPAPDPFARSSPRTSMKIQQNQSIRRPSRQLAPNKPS
Settings: not given
As a reminder, the IC50 is the concentration that inhibits the measured activity by half. `CS(=O)(=O)c1ccccc1-c1cc(C#N)cc(C(=O)N[C@H]2CC3(C2)C[C@H](Oc2ncccc2C(N)=O)C3)c1` (stereo partly drawn) [Example 196, 2-(((aR)-6-(5-cyano-2′-(methylsulfonyl)-[1,1′-biphenyl]-3-ylcarboxamido)spiro[3.3]heptan-2-yl)oxy)nicotinamide] had an IC50 of less than 0.005 µM.
The compound `Cc1noc(-c2cccc(C(=O)N[C@H]3CC4(C3)C[C@H](Oc3ncccc3C(N)=O)C4)c2)n1` (stereo partly drawn) [Example 147, 2-(((aR)-6-(3-(3-methyl-1,2,4-oxadiazol-5-yl)benzamido)spiro[3.3]heptan-2-yl)oxy) nicotinamide, trifluoroacetate] came in with an IC50 of 0.25 to 2.5 µM.
On the same count and under the same terms, next, `NC(=O)c1cccnc1O[C@H]1CC2(C[C@H](NC(=O)c3cnn4c(C5CC5)c(OCC5CCCO5)ccc34)C2)C1` (stereo partly drawn) [Example 342, N-((aR)-6-((3-carbamoylpyridin-2-yl)oxy)spiro[3.3]heptan-2-yl)-7-cyclopropyl-6-((tetrahydrofuran-2-yl)methoxy)pyrazolo[1,5-a]pyridine-3-carboxamide]: less than 0.005 µM; `Cc1ccc(C(N)=O)c(OC2CC3(CC(NC(=O)c4cnn5cc(OCC(C)(C)O)ccc45)C3)C2)c1` (stereo not shown) [Example 215, N-(6-(2-carbamoyl-5-methylphenoxy)spiro[3.3]heptan-2-yl)-6-(2-hydroxy-2-methylpropoxy)pyrazolo[1,5-a]pyridine-3-carboxamide]: 0.005 to 0.05 µM; `CC(C)(O)COc1ccc2c(C(=O)NC3CC4(C3)CC(Oc3cc(-c5cccc(S(=O)(=O)NCCO)c5)ccc3C(N)=O)C4)cnn2c1` (stereo not shown) [Example 297, N-(6-((4-carbamoyl-3′-(N-(2-hydroxyethyl)sulfamoyl)-[1,1′-biphenyl]-3-yl)oxy)spiro[3.3]heptan-2-yl)-6-(2-hydroxy-2-methylpropoxy)pyrazolo[1,5-a]pyridine-3-carboxamide]: less than 0.005 µM.
`[H][C@]1(Oc2ncccc2C(N)=O)C[C@@]2(C[C@H](NC(=O)c3cc(C4CC4)n4c(Cl)c(OCc5ccccc5)ccc34)C2)C1` (stereo partly drawn) [Example 376, 6-(benzyloxy)-N-((aR)-6-((3-carbamoylpyridin-2-yl)oxy)spiro[3.3]heptan-2-yl)-5-chloro-3-cyclopropylindolizine-1-carboxamide] returned an IC50 of 0.005 to 0.05 µM.
Same read-out and setting: next, `COc1ccc2c(c1)CCN2C(=O)N[C@H]1CC2(C1)C[C@H](Oc1ccccc1C(N)=O)C2` (stereo partly drawn) [Example 38, N-[(aR)-6-(2-carbamoylphenoxy)spiro [3.3]heptan-2-yl]-5-methoxy-2,3-dihydro-1H-indole-1-carboxamide]: 0.005 to 0.05 µM; `[H][C@]1(Oc2ncccc2C(N)=O)C[C@@]2(C[C@H](NC(=O)c3cc(OCCC(F)(F)F)cc(-c4cnn(C)c4)c3)C2)C1` (stereo partly shown) [Example 57]: 0.05 to 0.25 µM; `NC(=O)c1cccnc1O[C@H]1CC2(C[C@H](NC(=O)c3cnn4c(C5CC5)c(OCC5CCO5)ccc34)C2)C1` (stereo partly drawn) [Example 344, N-((aR)-6-((3-carbamoylpyridin-2-yl)oxy)spiro[3.3]heptan-2-yl)-7-cyclopropyl-6-(oxetan-2-ylmethoxy)pyrazolo[1,5-a]pyridine-3-carboxamide]: 0.005 to 0.05 µM.
Compound `Cn1nc(C(=O)N[C@H]2CC3(C2)C[C@H](Oc2ncccc2C(N)=O)C3)cc1OCC1CC1` (stereo partly drawn) [Example 84, 2-((aR)-6-(5-(cyclopropyl-methoxy)-1-methyl-1H-pyrazole-3-carboxamido)spiro-[3.3]heptan-2-yl)oxy) nicotinamide, trifluoroacetate] came in with an IC50 of 0.05 to 0.25 µM.
`CC(C)(O)Cn1nc(C(=O)N[C@H]2CC3(C2)C[C@H](Oc2ncccc2C(N)=O)C3)c2cc(Br)ccc21` (stereo partly drawn) [Example 93, 5-bromo-N-((aR)-6-((3-carbamoyl-pyridin-2-yl)oxy)spiro[3.3]heptan-2-yl)-1-(2-hydroxy-2-methylpropyl)-1H-indazole-3-carboxamide, trifluoroacetate] came in with an IC50 of 0.005 to 0.05 µM.
On to `COc1ccc2c(C(=O)N[C@H]3CC4(C3)C[C@H](Oc3ncccc3C(N)=O)C4)cnn2c1CCC(F)(F)F` (stereo partly drawn) [Example 99, N-((aR)-6-((3-carbamoylpyridin-2-yl)oxy)spiro[3.3]heptan-2-yl)-6-methoxy-7-(3,3,3-trifluoropropyl) pyrazolo[1,5-a]pyridine-3-carboxamide, trifluoroacetate], for which the IC50 was in the range of 0.005 to 0.05 µM.
The same measure, in the same setting: the figure for `CC(C)(O)COc1ccc2c(C(=O)NC3CC4(C3)CC(Oc3cc(-c5cccc(CCN)c5)ccc3C(N)=O)C4)cnn2c1` (stereo not shown) [Example 261, N-(6-((3′-(2-aminoethyl)-4-carbamoyl-[1,1′-biphenyl]-3-yl)oxy)spiro[3.3]heptan-2-yl)-6-(2-hydroxy-2-methylpropoxy)pyrazolo[1,5-a]pyridine-3-carboxamide] is less than 0.005 µM; for `[H][C@]1(Oc2ncccc2C(N)=O)C[C@@]2(C[C@H](NC(=O)c3cnc4cc(-c5ccc(=O)n(C)c5)ccn34)C2)C1` (stereo partly drawn) [Example 370, N-((aR)-6-((3-carbamoylpyridin-2-yl)oxy)spiro[3.3]heptan-2-yl)-7-(1-methyl-6-oxo-1,6-dihydropyridin-3-yl)imidazo[1,2-a]pyridine-3-carboxamide] it is less than 0.005 µM; for `NC(=O)c1cccnc1O[C@H]1CC2(C[C@H](NC(=O)c3cc(S(N)(=O)=O)c(F)cc3Cl)C2)C1` (stereo partly drawn) [Example 148, 2-(((aR)-6-(2-chloro-4-fluoro-5-sulfamoylbenzamido)spiro[3.3]heptan-2-yl)oxy) nicotinamide, trifluoroacetate] it is 0.05 to 0.25 µM.
In the case of `CC(C)(O)COc1ccc2c(C(=O)N[C@H]3CC4(C3)C[C@H](Oc3ncccc3C(N)=O)C4)cnn2c1N1CCCCC1=O` (atropisomer, axis not shown; (aR)) [Example 69, N-((aR)-6-((3-carbamoylpyridin-2-yl)oxy)spiro[3.3]heptan-2-yl)-6-(2-hydroxy-2-methylpropoxy)-7-(2-oxopiperidin-1-yl)pyrazolo[1,5-a]pyridine-3-carboxamide, trifluoroacetate], the IC50 was 0.05 to 0.25 µM.
Still for that read-out and setting: the figure for `NC(=O)c1ccccc1O[C@H]1CC2(C[C@H](NC(=O)c3cnc4cc(N5CCC(F)(F)C5)ccn34)C2)C1` (stereo partly drawn) [Example 25, N-[(aR)-6-(2-carbamoylphenoxy)spiro[3.3]heptan-2-yl)-7-(3,3-difluoropyrrolidin-1-yl)imidazo[1,2-a]pyridine-3-carboxamide] is less than 0.005 µM; for `[H][C@]1(Oc2ncccc2C(N)=O)C[C@@]2(C[C@H](NC(=O)c3cnn4c(C5CC5)c(OCC(C)(C)F)ccc34)C2)C1` (stereo partly drawn) [Example 49, N-((aR)-6-((3-carbamoylpyridin-2-yl)oxy)spiro[3.3]heptan-2-yl)-7-cyclopropyl-6-(2-fluoro-2-methylpropoxy)pyrazolo[1,5-a]pyridine-3-carboxamide] it is less than 0.005 µM.
Same read-out and setting: the figure for `N#Cc1cc(C(=O)N[C@H]2CC3(C2)C[C@H](Oc2ncccc2C(N)=O)C3)cc(-c2ccc(C#N)nc2)c1` (stereo partly drawn) [Example 191, 2-(((aR)-6-(3-cyano-5-(6-cyanopyridin-3-yl)benzamido)spiro[3.3]heptan-2-yl)oxy)nicotinamide, trifluoroacetate] is 0.005 to 0.05 µM.
Turning to `Cn1nc(C2CC2)cc1C(=O)N[C@H]1CC2(C1)C[C@H](Oc1ncccc1C(N)=O)C2` (stereo partly drawn) [Example 85, 2-((aR)-6-(3-cyclopropyl-1-methyl-1H-pyrazole-5-carboxamido)spiro[3.3]heptan-2-yl)oxy) nicotinamide, trifluoroacetate], the IC50 was in the range of 0.05 to 0.25 µM.
Still for that read-out and setting: the figure for `Cc1nn(C)cc1-c1cc(C#N)cc(C(=O)N[C@H]2CC3(C2)C[C@H](Oc2ncccc2C(N)=O)C3)c1` (stereo partly drawn) [Example 182, 2-(((aR)-6-(3-cyano-5-(1,3-dimethyl-1H-pyrazol-4-yl)benzamido)spiro [3.3]heptan-2-yl)oxy)nicotinamide, trifluoroacetate] is less than 0.005 µM; for `Cc1cccc(C(N)=O)c1OC1CC2(CC(NC(=O)c3cnn4c(C5CC5)c(OCC(C)(C)O)ccc34)C2)C1` (stereo not shown) [Example 214, N-(6-(2-carbamoyl-6-methylphenoxy)spiro[3.3]heptan-2-yl)-7-cyclopropyl-6-(2-hydroxy-2-methylpropoxy)pyrazolo[1,5-a]pyridine-3-carboxamide] it is 0.25 to 2.5 µM; for `Cc1c(C(=O)NC2CC3(C2)CC(Oc2ncccc2C(N)=O)C3)cnn1-c1cccc(C#N)c1` (stereo not shown) [Example 399] it is 0.05 to 0.25 µM.

Staying with this test, now noted: read-out: ROCK2 Activity (ROCK2 IC50); 5 μM ATP, 1.5 μM peptide substrate, pH 7.5.
On to `NC(=O)c1cccnc1OC1CC2(CC(NC(=O)c3nc(C(F)F)n4cc(N5CCOC(CCO)C5)ccc34)C2)C1` [Example 451, N-((aR)-6-((3-carbamoylpyridin-2-yl)oxy)spiro[3.3]heptan-2-yl)-3-(difluoromethyl)-6-(2-(2-hydroxyethyl)morpholino)imidazo[1,5-a]pyridine-1-carboxamide], for which the IC50 is 0.005 to 0.05 µM.
Still for that read-out and setting: the figure for `NC(=O)c1cccnc1OC1CC2(CC(NC(=O)c3nc(C(F)(F)F)n4cc(OCc5ccccc5)ccc34)C2)C1` [Example 431, 6-(benzyloxy)-N-((aR)-6-((3-carbamoylpyridin-2-yl)oxy)spiro[3.3]heptan-2-yl)-3-(trifluoromethyl)imidazo[1,5-a]pyridine-1-carboxamide] is 0.005 to 0.05 µM.
With `CC(C)(O)CNc1ccc2c(C(=O)NC3CC4(C3)CC(Oc3ncccc3C(N)=O)C4)nc(C(F)F)n2c1` [Example 442, N-((aR)-6-((3-carbamoylpyridin-2-yl)oxy)spiro[3.3]heptan-2-yl)-3-(difluoromethyl)-6-((2-hydroxy-2-methylpropyl)amino)imidazo[1,5-a]pyridine-1-carboxamide], the IC50 lay in the range of 0.25 to 2.5 µM.
In the case of `Cc1c(C(=O)NC2CC3(C2)CC(Oc2ncccc2C(N)=O)C3)cnn1-c1ccc(OC(F)(F)F)cc1` [Example 386, N-[(aR)2-[(6-{5-methyl-1-[4-(trifluoromethoxy)phenyl]-1H-pyrazole-4-amido}spiro[3.3]heptan-2-yl)oxy]pyridine-3-carboxamide 1 trifluoroacetic acid salt], the IC50 fell in the range of 0.005 to 0.05 µM.
Turning to `COc1ccc(-n2ncc(C(=O)N[C@H]3CC4(C3)C[C@H](Oc3ncccc3C(N)=O)C4)c2C)cn1` (stereo partly shown) [Example 400], the IC50 is 0.005 to 0.05 µM.
